Results reported in ChEMBL document CHEMBL5356980, “Linker optimization and activity validation of a cell surface vimentin targeted homo-dimeric peptoid antagonist for lung cancer stem cells” (Bioorg Med Chem, 2024).
Active and inactive are the calls of the source. The rule behind the calls is not given here.

What was measured:
NCI-H1299 [1] = test: Induction of apoptosis in human NCI-H1299 cells assessed as necrotic cells at 20 uM incubated for 12 hrs by annexin V/PI staining based flow cytometry analysis (reference value: 2.62%); format: functional
NCI-H1299 [2] = test: Induction of apoptosis in human NCI-H1299 cells assessed as viable cells at 20 uM incubated for 12 hrs by annexin V/PI staining based flow cytometry analysis (reference value: 94.6%); format: functional; conditions: read-out: Activity
NCI-H1299 [3] = test: Induction of apoptosis in human NCI-H1299 cells assessed as necrotic cells at 10 uM incubated for 12 hrs by annexin V/PI staining based flow cytometry analysis (reference value: 2.62%); format: functional
NCI-H1299 [4] = test: Induction of apoptosis in human NCI-H1299 cells assessed as late apoptotic cells at 10 uM incubated for 12 hrs by annexin V/PI staining based flow cytometry analysis (reference value: 2.05%); format: functional
NCI-H1299 [5] = test: Induction of apoptosis in human NCI-H1299 cells assessed as early apoptotic cells at 10 uM incubated for 12 hrs by annexin V/PI staining based flow cytometry analysis (reference value: 0.73%); format: functional
NCI-H1299 [6] = test: Induction of apoptosis in human NCI-H1299 cells assessed as viable cells at 10 uM incubated for 12 hrs by annexin V/PI staining based flow cytometry analysis (reference value: 94.6%); format: functional; conditions: read-out: Activity
NCI-H460 [7] = test: Induction of apoptosis in human NCI-H460 cells assessed as necrotic cells at 20 uM incubated for 12 hrs by annexin V/PI staining based flow cytometry analysis (reference value: 0.20%); format: functional
NCI-H460 [8] = test: Induction of apoptosis in human NCI-H460 cells assessed as late apoptotic cells at 20 uM incubated for 12 hrs by annexin V/PI staining based flow cytometry analysis (reference value: 6.19%); format: functional
NCI-H460 [9] = test: Induction of apoptosis in human NCI-H460 cells assessed as early apoptotic cells at 20 uM incubated for 12 hrs by annexin V/PI staining based flow cytometry analysis (reference value: 0.00%); format: functional
NCI-H460 [10] = test: Induction of apoptosis in human NCI-H460 cells assessed as viable cells at 20 uM incubated for 12 hrs by annexin V/PI staining based flow cytometry analysis (reference value: 90.9%); format: functional; conditions: read-out: Activity
NCI-H460 [11] = test: Induction of apoptosis in human NCI-H460 cells assessed as necrotic cells at 10 uM incubated for 12 hrs by annexin V/PI staining based flow cytometry analysis (reference value: 0.20%); format: functional
NCI-H460 [12] = test: Induction of apoptosis in human NCI-H460 cells assessed as early apoptotic cells at 10 uM incubated for 12 hrs by annexin V/PI staining based flow cytometry analysis (reference value: 0.00%); format: functional
NCI-H460 [13] = test: Induction of apoptosis in human NCI-H460 cells assessed as viable cells at 10 uM incubated for 12 hrs by annexin V/PI staining based flow cytometry analysis (reference value: 90.9%); format: functional; conditions: read-out: Activity
NCI-H1299 [14] = test: Antiproliferative activity against human NCI-H1299 cells assessed as inhibition of cell growth measured for 18 hrs by MTS assay; format: functional, cell-based
NCI-H1299 [15] = test: Antiproliferative activity against human NCI-H1299 cells assessed as inhibition of cell growth measured for 2 hrs by MTS assay; format: functional, cell-based; conditions: NCI-H1299, 2 h
NCI-H1299 [16] = test: Inhibition of cell migration of human NCI-H1299 cells assessed as reduction in wound distance at 10 uM incubated for 24 hrs by crystal violet staining based microscopic analysis; format: functional
NCI-H460 [17] = test: Inhibition of cell migration of human NCI-H460 cells assessed as reduction in wound distance at 10 uM incubated for 24 hrs by crystal violet staining based microscopic analysis; format: functional
NCI-H1299 [18] = test: Inhibition of cell migration of human NCI-H1299 cells assessed as reduction in wound closure incubated for 24 hrs by crystal violet staining based microscopic analysis; format: functional; conditions: NCI-H1299, 24 h
NCI-H460 [19] = test: Inhibition of cell migration of human NCI-H460 cells assessed as reduction in wound closure incubated for 24 hrs by crystal violet staining based microscopic analysis; format: functional; conditions: NCI-H460, 24 h
NCI-H1299 [20] = test: Inhibition of cell migration of human NCI-H1299 cells incubated for 24 hrs by crystal violet staining based microscopic analysis; format: functional; conditions: dose <= 10000.0 nM
NCI-H460 [21] = test: Inhibition of cell migration of human NCI-H460 cells incubated for 24 hrs by crystal violet staining based microscopic analysis; format: functional; conditions: dose <= 10000.0 nM
NCI-H460 [22] = test: Inhibition of colony formation in human NCI-H460 cells at 300 nM incubated for 8 days by crystal violet staining based analysis; format: functional, cell-based; conditions: time 8.0 day
NCI-H460 [23] = test: Inhibition of colony formation in human NCI-H460 cells incubated for 8 days by crystal violet staining based analysis; format: functional, cell-based
NCI-H1299 [24] = test: Induction of apoptosis in human NCI-H1299 cells assessed as late apoptotic cells at 20 uM incubated for 12 hrs by annexin V/PI staining based flow cytometry analysis (reference value: 2.05%); format: functional
NCI-H1299 [25] = test: Induction of apoptosis in human NCI-H1299 cells assessed as early apoptotic cells at 20 uM incubated for 12 hrs by annexin V/PI staining based flow cytometry analysis (reference value: 0.73%); format: functional
NCI-H460 [26] = test: Induction of apoptosis in human NCI-H460 cells assessed as late apoptotic cells at 10 uM incubated for 12 hrs by annexin V/PI staining based flow cytometry analysis (reference value: 6.19%); format: functional
NCI-H1299 [27] = test: Inhibition of colony formation in human NCI-H1299 cells incubated for 8 days by crystal violet staining based analysis; format: functional, cell-based
NCI-H1299 [28] = test: Antimigratory activity against human NCI-H1299 assessed as inhibition of cell migration incubated for 24 hrs by crystal violet staining based microscopic analysis; format: functional; conditions: NCI-H1299, 24 h
Vimentin = Vimentin (Homo sapiens, UniProt P08670); test: Binding affinity to his-tagged recombinant Vimentin (unknown origin) assessed as dissociation constant by ELISA analysis
NCI-H1299 [29] = test: Antiproliferative activity against human NCI-H1299 cells expressing vimentin assessed as inhibition of cell growth incubated for 3 days by MTS assay; format: functional, cell-based; conditions: NCI-H1299, 72 h
NCI-H460 [30] = test: Antiproliferative activity against human NCI-H460 cells expressing vimentin assessed as inhibition of cell growth incubated for 3 days by MTS assay; format: functional, cell-based; conditions: NCI-H460, 72 h
NCI-H2009 = test: Antiproliferative activity against human NCI-H2009 cells expressing vimentin assessed as inhibition of cell growth incubated for 3 days by MTS assay; format: functional, cell-based; conditions: NCI-H2009, 72 h
NCI-H358 = test: Antiproliferative activity against human NCI-H358 cells expressing vimentin assessed as inhibition of cell growth incubated for 3 days by MTS assay; format: functional, cell-based; conditions: NCI-H358, 72 h
NCI-H2122 = test: Antiproliferative activity against human NCI-H2122 cells expressing vimentin assessed as inhibition of cell growth incubated for 3 days by MTS assay; format: functional, cell-based; conditions: NCI-H2122, 72 h
HBEC3-KT = test: Antiproliferative activity against human HBEC3-KT cells assessed as inhibition of cell growth incubated for 3 days by MTS assay; format: toxicity, cell-based; conditions: 72 h, time 3 day

Sequence of Vimentin (P08670 whole entry): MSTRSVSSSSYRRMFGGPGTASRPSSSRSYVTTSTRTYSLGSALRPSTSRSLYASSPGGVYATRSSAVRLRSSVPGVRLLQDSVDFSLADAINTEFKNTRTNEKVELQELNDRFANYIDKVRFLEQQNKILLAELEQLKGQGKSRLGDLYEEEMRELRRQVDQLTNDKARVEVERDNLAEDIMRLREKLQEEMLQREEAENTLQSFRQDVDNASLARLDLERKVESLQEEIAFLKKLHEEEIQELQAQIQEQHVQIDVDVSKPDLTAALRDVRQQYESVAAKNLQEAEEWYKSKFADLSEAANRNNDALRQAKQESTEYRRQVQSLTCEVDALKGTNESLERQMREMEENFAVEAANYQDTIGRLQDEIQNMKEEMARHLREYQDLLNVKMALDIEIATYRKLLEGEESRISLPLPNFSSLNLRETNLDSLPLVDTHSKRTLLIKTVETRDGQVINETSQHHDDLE

COCCN(CC(=O)N[C@@H](CCCCN)C(=O)N[C@H](C)C(=O)NCC(=O)NCCCCC(NC(=O)CNC(=O)[C@@H](C)NC(=O)[C@H](CCCCN)NC(=O)CN(CCOC)C(=O)CN(Cc1ccc2c(c1)OCO2)C(=O)CN(CC(C)C)C(=O)CN(CCCCN)C(=O)CN(CCCCN)C(=O)CN(CC(C)C)C(=O)CNc1cccc(C(=O)c2ccccc2)c1)C(N)=O)C(=O)CN(Cc1ccc2c(c1)OCO2)C(=O)CN(CC(C)C)C(=O)CN(CCCCN)C(=O)CN(CCCCN)C(=O)CN(CC(C)C)C(=O)CNc1ccc(C(=O)c2ccccc2)cc1 (some centres not stated)
Activity (NCI-H1299 [1]): 1.37%
viability at 20 µM (NCI-H1299 [2]): 21.3%
Activity (NCI-H1299 [3]): 0.98%
Activity (NCI-H1299 [4]): 8.1%
Activity (NCI-H1299 [5]): 0.44%
viability at 10 µM (NCI-H1299 [6]): 50.5%
Activity (NCI-H460 [7]): 12.8%
Activity (NCI-H460 [8]): 45.5%
Activity (NCI-H460 [9]): 1.09%
viability at 20 µM (NCI-H460 [10]): 0.06%
Activity (NCI-H460 [11]): 1.3%
Activity (NCI-H460 [12]): 1.15%
viability at 10 µM (NCI-H460 [13]): 62.2%
Activity (NCI-H1299 [14]): inactive
IC50 (NCI-H1299 [15]): ~21 µM
inhibition (NCI-H1299 [16]): Active
inhibition (NCI-H460 [17]): Active
IC50 (NCI-H1299 [18]): 2 µM
IC50 (NCI-H460 [19]): 4 µM
inhibition (NCI-H1299 [20]): Dose-Dependent Effect
inhibition (NCI-H460 [21]): Dose-Dependent Effect
inhibition (NCI-H460 [22]): Active
IC50 (NCI-H460 [23]; NCI-H460, 192 h): 0.4 µM
inhibition (NCI-H460 [23]; time 8.0 day): Dose-Dependent Effect
Activity (NCI-H1299 [24]): 26%
Activity (NCI-H1299 [25]): 0.46%
Activity (NCI-H460 [26]): 15.3%
IC50 (NCI-H1299 [27]; NCI-H1299, 192 h): 0.8 µM
inhibition (NCI-H1299 [27]; time 8.0 day): Dose-Dependent Effect
IC50 (NCI-H1299 [28]): ~2 µM
Kd (Vimentin): ~0.1 µM
IC50 (NCI-H1299 [29]): 6.7 µM
IC50 (NCI-H460 [30]): 8.6 µM
IC50 (NCI-H2009): 14.3 µM
IC50 (NCI-H358): 12.8 µM
IC50 (NCI-H2122): 30.5 µM
Activity (HBEC3-KT): Non-Toxic
